Structures can show the parent of a compound that is named as a salt. Where two headings read alike, the source gives them in different places. One block for each compound: values may come before it.
What was measured:
[1] = biological target: PI 3-kinase alpha (Homo sapiens, UniProt P42336); experiment: Kinase Glo Luminescent Kinase Assay (Kglo), assay A; format: biochemical; details: read-out: Assay A PI3Kα IC50
[2] = biological target: PI 3-kinase beta (Homo sapiens, UniProt P42338); experiment: Kinase Glo Luminescent Kinase Assay (Kglo), assay B; format: biochemical; details: read-out: Assay B PI3Kβ IC50
[3] = biological target: Vps34 (Homo sapiens, UniProt Q8NEB9); experiment: Kinase Glo Luminescent Kinase Assay (Kglo), assay C; format: biochemical; details: read-out: Assay C VPS34 IC50
[4] = biological target: PI 4-kinase beta (Homo sapiens, UniProt Q9UBF8); experiment: Kinase Glo Luminescent Kinase Assay (Kglo), assay D; format: biochemical; details: read-out: Assay D PI4Kβ IC50
[5] = biological target: PI 3-kinase gamma (Homo sapiens, UniProt P48736); experiment: TR-FRET Adapta assay, assay E; format: biochemical; details: read-out: Assay E PI3Kγ IC50
Experimental: TR-FRET Adapta Assay for PI 3-Kinase Gamma (E), PI 3-Kinase Delta (F)
The TR-FRET Adapta™ Universal Kinase Assay Kit was purchased from Invitrogen Corporation (Carlsbad/CA, USA) (Cat. No. PV5099).
PIK3CD substrate phosphatidylinositol (PI) was obtained from Invitrogen (vesicules consisting of 2 mM phosphatidylinositol (PI) in 50 mM HEPES pH7.5; Cat. No. PV5371). PIK3CG substrate phosphatidylinositol-4,5-bisphosphate (PIP(4,5)2 was obtained from Invitrogen (PIP2:PS large unilamellar vesicules consisting of 1 mM PIP2: 19 mM PS in 50 mM HEPES pH7.5, 3 mM MgCl2, 1 mM EGTA; Cat. No. PV5100).
Time-Resolved Fluorescence Resonance Energy Transfer (TR-FRET) is a technology based on energy transfer between two adjacent dyes, from an excited electron in one dye (the donor) to an electron of an adjacent dye (the acceptor) through resonance, then released as a photon. This energy transfer is detected by an increase in the fluorescence emission of the acceptor, and a decrease in the fluorescence emission of the donor. TR-FRET assays for protein kinases use a long-lifetime lanthanide Terbium or Europium chelates as the donor species which overcome interference from compound autofluorescence or light scatter from precipitated compounds, by introducing a delay after excitation by a flashlamp excitation source. Results are often expressed as a ratio of the intensities of the acceptor and donor fluorophores. The ratiometric nature of such a value corrects for differences in assay volumes between wells, as well as corrects for quenching effects due to colored compounds. The Adapta™ assay can be divided into two phases: a kinase reaction phase and an ADP detection phase. In the kinase reaction phase, all kinase reaction components are added to the well and the reaction is allowed to incubate for a set period of time specific for each kinase. […] In the presence of an inhibitor, the amount of ADP formed by the kinase reaction is reduced, and the resulting intact antibody-tracer interaction maintains a high TR-FRET signal.
50 nL of compound dilutions were dispensed onto white 384-well small volume polystyrene plate. Then 5 μL of either PI 3-kinase gamma or PI 3-kinase delta and lipid substrate (PI or PIP2:PS) followed by 5 μL of ATP (final assay volume 10 μL) are incubated at RT. The standard reaction buffer for the Adapta™ TR-FRET assay contained 10 mM Tris-HCl pH 7.5, 3 mM MgCl2, 50 mM NaCl, 1 mM DTT, 0.05% CHAPS 3-[(3-cholamidopropyl)dimethylammonio]-1-propanesulfonate).
Data are analyzed using Excel fit software or Graphpad Prism. IC50 values were derived by fitting a sigmoidal dose-response curve to a plot of assay readout over inhibitor concentration. All fits were performed with the program XLfit4 (ID Business Solutions, Guildford, UK). […] All fits were performed with the program XLfit4 (ID Business Solutions, Guildford, UK).

[6] = biological target: mTOR (Homo sapiens, UniProt P42345); experiment: Lanthascreen kinase binding assay, assay G; details: read-out: Assay G mTOR IC50
Experimental: Lanthascreen™ Kinase Binding Assay for mTOR (G)
Binding of an inhibitor to the kinase competes for binding with the tracer, resulting in a loss of FRET.
50 nL of compound dilutions were dispensed onto white 384-well small volume polystyrene plate.

[7] = biological target: PI 3-kinase delta (Homo sapiens, UniProt O00329); experiment: TR-FRET Adapta assay, assay F
Chain of PI 3-kinase delta (O00329 whole entry): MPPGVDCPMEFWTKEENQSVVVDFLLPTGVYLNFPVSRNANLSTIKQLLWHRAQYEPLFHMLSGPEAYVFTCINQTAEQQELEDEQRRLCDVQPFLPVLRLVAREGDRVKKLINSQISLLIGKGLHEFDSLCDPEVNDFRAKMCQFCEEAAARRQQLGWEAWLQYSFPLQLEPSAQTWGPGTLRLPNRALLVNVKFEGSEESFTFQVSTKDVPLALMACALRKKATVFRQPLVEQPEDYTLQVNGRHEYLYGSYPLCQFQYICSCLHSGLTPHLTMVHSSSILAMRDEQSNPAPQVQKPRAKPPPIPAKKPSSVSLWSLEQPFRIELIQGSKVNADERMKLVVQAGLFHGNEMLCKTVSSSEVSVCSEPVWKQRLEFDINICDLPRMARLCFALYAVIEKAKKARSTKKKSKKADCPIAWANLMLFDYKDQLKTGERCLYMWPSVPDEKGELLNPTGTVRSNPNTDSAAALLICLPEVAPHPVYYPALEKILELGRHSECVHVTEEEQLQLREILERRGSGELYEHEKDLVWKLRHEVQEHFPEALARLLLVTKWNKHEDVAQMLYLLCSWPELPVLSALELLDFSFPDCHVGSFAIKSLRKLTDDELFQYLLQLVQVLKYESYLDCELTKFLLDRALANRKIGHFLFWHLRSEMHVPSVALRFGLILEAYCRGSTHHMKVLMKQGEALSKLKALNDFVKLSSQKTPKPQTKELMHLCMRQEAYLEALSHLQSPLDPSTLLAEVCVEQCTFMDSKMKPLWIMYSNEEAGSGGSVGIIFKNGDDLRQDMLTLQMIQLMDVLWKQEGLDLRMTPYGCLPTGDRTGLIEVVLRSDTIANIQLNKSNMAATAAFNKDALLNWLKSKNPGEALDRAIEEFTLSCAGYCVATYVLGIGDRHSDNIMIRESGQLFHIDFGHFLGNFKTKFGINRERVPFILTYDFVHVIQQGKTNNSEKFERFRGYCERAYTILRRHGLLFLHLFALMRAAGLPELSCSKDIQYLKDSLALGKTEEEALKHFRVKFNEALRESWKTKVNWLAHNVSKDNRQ
Chain of PI 3-kinase delta (P27986 461-568 partner): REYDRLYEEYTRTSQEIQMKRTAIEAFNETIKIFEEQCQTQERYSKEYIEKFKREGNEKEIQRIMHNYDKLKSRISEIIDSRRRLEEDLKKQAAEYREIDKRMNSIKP

Chain of PI 3-kinase gamma (P48736 whole entry): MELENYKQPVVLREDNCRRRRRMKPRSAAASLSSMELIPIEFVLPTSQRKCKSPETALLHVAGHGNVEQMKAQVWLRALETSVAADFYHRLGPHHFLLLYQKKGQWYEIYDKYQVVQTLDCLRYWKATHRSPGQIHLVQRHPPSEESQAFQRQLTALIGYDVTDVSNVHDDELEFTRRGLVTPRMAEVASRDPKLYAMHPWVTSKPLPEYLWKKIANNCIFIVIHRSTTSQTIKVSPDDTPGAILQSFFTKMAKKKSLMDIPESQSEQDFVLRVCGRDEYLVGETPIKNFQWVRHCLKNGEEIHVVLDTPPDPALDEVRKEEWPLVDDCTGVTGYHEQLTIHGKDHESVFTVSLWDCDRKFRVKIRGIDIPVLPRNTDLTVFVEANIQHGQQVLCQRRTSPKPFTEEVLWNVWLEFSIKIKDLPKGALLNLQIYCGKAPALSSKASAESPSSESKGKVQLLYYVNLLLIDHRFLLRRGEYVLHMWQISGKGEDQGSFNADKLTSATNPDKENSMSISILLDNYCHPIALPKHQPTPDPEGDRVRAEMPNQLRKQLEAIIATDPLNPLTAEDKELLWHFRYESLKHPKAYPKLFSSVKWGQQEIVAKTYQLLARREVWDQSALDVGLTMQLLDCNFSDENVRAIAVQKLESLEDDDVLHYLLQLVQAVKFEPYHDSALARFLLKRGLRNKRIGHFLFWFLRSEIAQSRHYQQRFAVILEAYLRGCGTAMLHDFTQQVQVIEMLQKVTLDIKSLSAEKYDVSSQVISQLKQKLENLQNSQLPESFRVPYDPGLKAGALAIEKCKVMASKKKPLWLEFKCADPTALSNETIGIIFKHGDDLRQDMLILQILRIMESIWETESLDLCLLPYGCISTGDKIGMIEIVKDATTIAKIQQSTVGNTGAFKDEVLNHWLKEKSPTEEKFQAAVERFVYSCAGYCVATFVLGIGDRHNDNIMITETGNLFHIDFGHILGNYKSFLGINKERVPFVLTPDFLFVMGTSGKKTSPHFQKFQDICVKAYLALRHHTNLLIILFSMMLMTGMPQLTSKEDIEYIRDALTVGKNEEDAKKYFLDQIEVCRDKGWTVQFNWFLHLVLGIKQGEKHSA
Chain of PI 3-kinase beta (P42338 whole entry): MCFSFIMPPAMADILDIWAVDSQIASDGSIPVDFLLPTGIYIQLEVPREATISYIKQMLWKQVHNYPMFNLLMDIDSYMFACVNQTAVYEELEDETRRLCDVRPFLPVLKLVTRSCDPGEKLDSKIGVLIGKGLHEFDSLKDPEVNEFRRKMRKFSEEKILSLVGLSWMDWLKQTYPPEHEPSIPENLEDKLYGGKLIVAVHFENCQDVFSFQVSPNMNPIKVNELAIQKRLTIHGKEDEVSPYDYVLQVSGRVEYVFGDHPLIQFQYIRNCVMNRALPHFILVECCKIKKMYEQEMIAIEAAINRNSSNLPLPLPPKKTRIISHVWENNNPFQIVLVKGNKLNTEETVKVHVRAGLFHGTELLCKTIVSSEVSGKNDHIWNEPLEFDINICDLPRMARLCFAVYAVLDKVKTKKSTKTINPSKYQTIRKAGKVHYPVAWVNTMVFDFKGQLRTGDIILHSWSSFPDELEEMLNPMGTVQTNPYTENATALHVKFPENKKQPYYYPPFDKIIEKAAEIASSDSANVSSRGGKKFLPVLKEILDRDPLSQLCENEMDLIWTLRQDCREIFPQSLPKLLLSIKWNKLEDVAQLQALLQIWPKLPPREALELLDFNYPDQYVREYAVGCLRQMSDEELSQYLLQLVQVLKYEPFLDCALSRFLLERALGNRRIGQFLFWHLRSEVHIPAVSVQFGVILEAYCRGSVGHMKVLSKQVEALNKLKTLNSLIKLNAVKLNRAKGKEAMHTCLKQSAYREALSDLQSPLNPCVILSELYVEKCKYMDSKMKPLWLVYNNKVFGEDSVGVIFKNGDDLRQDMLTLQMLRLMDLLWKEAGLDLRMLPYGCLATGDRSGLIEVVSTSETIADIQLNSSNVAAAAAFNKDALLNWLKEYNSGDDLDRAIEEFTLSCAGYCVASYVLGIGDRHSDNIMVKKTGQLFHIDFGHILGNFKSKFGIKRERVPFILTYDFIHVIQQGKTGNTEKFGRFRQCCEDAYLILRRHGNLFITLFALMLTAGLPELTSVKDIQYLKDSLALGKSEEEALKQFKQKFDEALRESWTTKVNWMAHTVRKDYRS
Chain of PI 3-kinase beta (P27986 461-568 partner): as the sequence (P27986 461-568 partner) above
Chain of PI 4-kinase beta (Q9UBF8 whole entry): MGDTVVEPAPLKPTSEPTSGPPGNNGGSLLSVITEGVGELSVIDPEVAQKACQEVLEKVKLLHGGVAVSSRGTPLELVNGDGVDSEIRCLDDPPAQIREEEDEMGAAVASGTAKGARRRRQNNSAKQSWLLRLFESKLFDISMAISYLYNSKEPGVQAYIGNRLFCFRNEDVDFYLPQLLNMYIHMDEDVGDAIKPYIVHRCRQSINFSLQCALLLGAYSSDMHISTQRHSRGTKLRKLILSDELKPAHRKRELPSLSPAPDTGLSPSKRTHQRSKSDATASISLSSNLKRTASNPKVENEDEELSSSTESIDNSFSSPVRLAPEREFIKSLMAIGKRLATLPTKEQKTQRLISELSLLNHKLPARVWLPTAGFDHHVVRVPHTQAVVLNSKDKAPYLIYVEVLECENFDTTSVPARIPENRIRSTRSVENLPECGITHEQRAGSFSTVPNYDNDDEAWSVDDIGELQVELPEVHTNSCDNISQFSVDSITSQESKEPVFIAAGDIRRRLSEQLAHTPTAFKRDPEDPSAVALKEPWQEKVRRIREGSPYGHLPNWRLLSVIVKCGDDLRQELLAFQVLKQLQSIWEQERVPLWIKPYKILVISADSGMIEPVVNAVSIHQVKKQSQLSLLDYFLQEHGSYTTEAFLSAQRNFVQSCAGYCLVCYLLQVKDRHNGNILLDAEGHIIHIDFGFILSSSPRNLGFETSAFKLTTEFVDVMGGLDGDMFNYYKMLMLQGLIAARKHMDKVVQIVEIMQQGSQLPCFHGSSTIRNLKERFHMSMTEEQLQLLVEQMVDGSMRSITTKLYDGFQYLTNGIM
Chain of Vps34 (Q8NEB9 whole entry, species assumed): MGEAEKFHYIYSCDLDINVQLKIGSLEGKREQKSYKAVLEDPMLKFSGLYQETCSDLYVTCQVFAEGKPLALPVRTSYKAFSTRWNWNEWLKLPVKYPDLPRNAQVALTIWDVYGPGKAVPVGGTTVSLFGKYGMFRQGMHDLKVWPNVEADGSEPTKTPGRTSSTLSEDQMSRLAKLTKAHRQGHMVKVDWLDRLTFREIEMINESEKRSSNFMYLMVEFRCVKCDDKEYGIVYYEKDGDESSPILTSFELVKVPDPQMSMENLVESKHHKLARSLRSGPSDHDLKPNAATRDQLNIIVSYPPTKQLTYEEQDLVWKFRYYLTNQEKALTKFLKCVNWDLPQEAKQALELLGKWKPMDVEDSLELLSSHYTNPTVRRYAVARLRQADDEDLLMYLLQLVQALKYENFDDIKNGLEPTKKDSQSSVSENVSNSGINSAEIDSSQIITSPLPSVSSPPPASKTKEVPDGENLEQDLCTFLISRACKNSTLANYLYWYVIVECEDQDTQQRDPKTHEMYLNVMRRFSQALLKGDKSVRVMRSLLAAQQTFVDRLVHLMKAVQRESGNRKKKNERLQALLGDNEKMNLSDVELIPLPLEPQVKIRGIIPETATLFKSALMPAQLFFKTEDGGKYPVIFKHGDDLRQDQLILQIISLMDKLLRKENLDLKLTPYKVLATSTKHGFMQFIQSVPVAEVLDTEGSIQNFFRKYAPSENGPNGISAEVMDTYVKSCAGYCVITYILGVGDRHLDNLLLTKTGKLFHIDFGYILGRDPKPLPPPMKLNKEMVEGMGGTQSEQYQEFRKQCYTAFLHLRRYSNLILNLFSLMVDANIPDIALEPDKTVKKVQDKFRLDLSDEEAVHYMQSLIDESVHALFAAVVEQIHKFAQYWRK

SMILES: Cc1ccc(S(=O)(=O)NCCCCCO)cc1-c1cnc(N)c(-n2cncn2)n1 [Example 127.9]
IC50 [1]: 2300 nM
IC50 [2]: > 10000 nM
IC50 [3]: > 10000 nM
IC50 [4]: > 10000 nM
IC50 [5]: 1600 nM
IC50 [6]: > 10000 nM
IC50 ([7]; read-out: Assay F PI3Kδ IC50): 3000 nM

SMILES: Cc1ccc(S(=O)(=O)NC[C@@H]2CCC(C)(C)O2)cc1-c1cnc(N)c(-n2cncn2)n1 [Example 127.40]
IC50 [1]: 770 nM
IC50 [2]: 1500 nM
IC50 [3]: > 10000 nM
IC50 [4]: 7600 nM
IC50 [5]: 140 nM
IC50 [6]: > 10000 nM
IC50 [7]: 1400 nM

SMILES: COCCCNS(=O)(=O)c1ccc(C)c(-c2cnc(N)c(-n3cncn3)n2)c1 [Example 127.10]
IC50 [1]: 1700 nM
IC50 [2]: 9200 nM
IC50 [3]: > 10000 nM
IC50 [4]: > 10000 nM
IC50 [5]: 320 nM
IC50 [6]: > 10000 nM
IC50 ([7]; read-out: Assay F PI3Kδ IC50): 5500 nM

SMILES: Cc1ccc(S(=O)(=O)NCC2CCN(C)C2)cc1-c1cnc(N)c(-n2cncn2)n1 (centres unmarked) [Example 127.18]
IC50 [1]: 1900 nM
IC50 [2]: 2400 nM
IC50 [3]: > 10000 nM
IC50 [4]: > 10000 nM
IC50 [5]: 1300 nM
IC50 [6]: > 10000 nM
IC50 ([7]; read-out: Assay F PI3Kδ IC50): 380 nM

SMILES: Cc1ccc(S(=O)(=O)NC2CCSC2=O)cc1-c1cnc(N)c(-n2cncn2)n1 (centres unmarked) [Example 127.51]
IC50 [1]: 600 nM
IC50 [2]: 1900 nM
IC50 [3]: > 10000 nM
IC50 [4]: 5300 nM
IC50 [5]: 65 nM
IC50 [6]: 5900 nM
IC50 ([7]; read-out: Assay F PI3Kδ IC50): 580 nM

SMILES: Cc1ccc(S(=O)(=O)N[C@@H]2CNC[C@H]2O)cc1-c1cnc(N)c(-n2cncn2)n1 [Example 127.60, 3-(5-amino-6-(1H-1,2,4-triazol-1-yl)pyrazin-2-yl)-N-((3R,4R)-4-hydroxypyrrolidin-3-yl)-4-methylbenzenesulfonamide trifluoroacetic acid salt]
IC50 [1]: 960 nM
IC50 [2]: 730 nM
IC50 [3]: > 10000 nM
IC50 [4]: 3300 nM
IC50 [5]: 140 nM
IC50 [6]: > 10000 nM
IC50 [7]: 2400 nM

SMILES: Cc1nc(-c2nc(-c3cc(S(=O)(=O)NCCC(C)(C)O)ccc3C)cnc2N)cs1 [Example 119.30]
IC50 [1]: 170 nM
IC50 [2]: 1500 nM
IC50 [3]: > 9100 nM
IC50 [4]: 4710 nM
IC50 [5]: 13 nM
IC50 [6]: 2880 nM
IC50 ([7]; read-out: Assay F PI3Kδ IC50): 110 nM

SMILES: Cc1ccc(S(=O)(=O)NCC2(O)CCCCC2)cc1-c1cnc(N)c(-n2cncn2)n1 [Example 127.11]
IC50 [1]: 980 nM
IC50 [2]: 1300 nM
IC50 [3]: > 10000 nM
IC50 [4]: > 10000 nM
IC50 [5]: 270 nM
IC50 [6]: > 10000 nM
IC50 ([7]; read-out: Assay F PI3Kδ IC50): 760 nM

SMILES: Cc1ccc(S(=O)(=O)NCC2(CO)CCOCC2)cc1-c1cnc(N)c(-n2cncn2)n1 [Example 127.50]
IC50 [1]: 840 nM
IC50 [2]: 1400 nM
IC50 [3]: > 10000 nM
IC50 [4]: > 10000 nM
IC50 [5]: 32 nM
IC50 [6]: 5600 nM
IC50 ([7]; read-out: Assay F PI3Kδ IC50): 2100 nM

SMILES: Cc1ccc(S(=O)(=O)NCCC(C)(C)O)cc1-c1cnc(N)c(-c2ccnc(F)c2)n1 [Example 119.10]
IC50 [1]: 120 nM
IC50 [2]: 6470 nM
IC50 [3]: > 9100 nM
IC50 [4]: > 9100 nM
IC50 [5]: 30 nM
IC50 [6]: 6400 nM
IC50 ([7]; read-out: Assay F PI3Kδ IC50): 100 nM

SMILES: Cc1ccc(S(=O)(=O)N[C@@H]2CCOC2)cc1-c1cnc(N)c(-n2cncn2)n1 [Example 127.20]
IC50 [1]: 970 nM
IC50 [2]: 5100 nM
IC50 [3]: > 10000 nM
IC50 [4]: 5300 nM
IC50 [5]: 130 nM
IC50 [6]: > 10000 nM
IC50 ([7]; read-out: Assay F PI3Kδ IC50): 1700 nM

SMILES: Cc1ccc(S(=O)(=O)N[C@@H](C)CO)cc1-c1cnc(N)c(-n2cncn2)n1 [Example 127.41]
IC50 [1]: 1700 nM
IC50 [2]: 3500 nM
IC50 [3]: > 10000 nM
IC50 [4]: 4200 nM
IC50 [5]: 270 nM
IC50 [6]: > 10000 nM
IC50 ([7]; read-out: Assay F PI3Kδ IC50): 6600 nM

SMILES: Cc1ccc(S(=O)(=O)NC(C)C(C)C)cc1-c1cnc(N)c(-n2cncn2)n1 (centres unmarked) [Example 127.44]
IC50 [1]: 730 nM
IC50 [2]: 2200 nM
IC50 [3]: > 10000 nM
IC50 [4]: 6100 nM
IC50 [5]: 120 nM
IC50 [6]: 3700 nM
IC50 ([7]; read-out: Assay F PI3Kδ IC50): 1400 nM

SMILES: Cc1ccc(S(=O)(=O)NCCC(C)(C)O)cc1-c1cnc(N)c(-c2cncnc2)n1 [Example 119.20]
IC50 [1]: 1480 nM
IC50 [2]: > 9100 nM
IC50 [3]: > 9100 nM
IC50 [4]: > 9100 nM
IC50 [5]: 508 nM
IC50 [6]: 4820 nM
IC50 ([7]; read-out: Assay F PI3Kδ IC50): 2080 nM

Other lines, results leading:

IC50 [1]: 630 nM
IC50 [2]: > 9100 nM
IC50 [3]: > 9100 nM
IC50 [4]: > 9100 nM
IC50 [5]: 66 nM
IC50 [6]: > 9100 nM
IC50 ([7]; read-out: Assay F PI3Kδ IC50): 2000 nM
SMILES: Cc1cc(-c2nc(-c3cc(S(=O)(=O)NCC4CCCCO4)ccc3C)cnc2N)ccn1 (centres unmarked) [Example 129.16, 3-(5-amino-6-(2-methylpyridin-4-yl)pyrazin-2-yl)-4-methyl-N-((tetrahydro-2H-pyran-2-yl)methyl)benzenesulfonamide]

IC50 [1]: 550 nM
IC50 [2]: > 9100 nM
IC50 [3]: > 9100 nM
IC50 [4]: 6200 nM
IC50 [5]: 27 nM
IC50 [6]: > 9100 nM
IC50 ([7]; read-out: Assay F PI3Kδ IC50): 940 nM
SMILES: Cc1cc(-c2nc(-c3cc(S(=O)(=O)NC4CCOCC4)ccc3C)cnc2N)ccn1 [Example 129.10, 3-(5-amino-6-(2-methylpyridin-4-yl)pyrazin-2-yl)-4-methyl-N-(tetrahydro-2H-pyran-4-yl)benzenesulfonamide]

IC50 [1]: 670 nM
IC50 [2]: 6400 nM
IC50 [3]: > 9100 nM
IC50 [4]: > 9100 nM
IC50 [5]: 1100 nM
IC50 [6]: > 9100 nM
IC50 ([7]; read-out: Assay F PI3Kδ IC50): 4000 nM
SMILES: Cc1cc(-c2nc(-c3cc(S(=O)(=O)N4CC[C@@H](N)C4)ccc3C)cnc2N)ccn1 [Example 129.40, (R)-5-(5-(3-aminopyrrolidin-1-ylsulfonyl)-2-methylphenyl)-3-(2-methylpyridin-4-yl)pyrazin-2-amine]

IC50 [1]: 1900 nM
IC50 [2]: > 9100 nM
IC50 [3]: > 9100 nM
IC50 [4]: > 9100 nM
IC50 [5]: 240 nM
IC50 [6]: > 9100 nM
IC50 ([7]; read-out: Assay F PI3Kδ IC50): 2100 nM
SMILES: COC(C)(C)CNS(=O)(=O)c1ccc(C)c(-c2cnc(N)c(-c3ccnc(C)c3)n2)c1 [Example 129.15, 3-(5-amino-6-(2-methylpyridin-4-yl)pyrazin-2-yl)-N-(2-methoxy-2-methylpropyl)-4-methylbenzenesulfonamide]

IC50 [1]: 5400 nM
IC50 [2]: > 9100 nM
IC50 [3]: > 9100 nM
IC50 [4]: > 9100 nM
IC50 [5]: 41 nM
IC50 [6]: > 9100 nM
IC50 ([7]; read-out: Assay F PI3Kδ IC50): 1200 nM
SMILES: Cc1cc(-c2nc(-c3cc(S(=O)(=O)NCC4CCN(C)C4)ccc3C)cnc2N)ccn1 (centres unmarked) [Example 129.30, 3-(5-amino-6-(2-methylpyridin-4-yl)pyrazin-2-yl)-4-methyl-N-((1-methylpyrrolidin-3-yl)methyl)benzenesulfonamide]

IC50 [1]: 1600 nM
IC50 [2]: 1700 nM
IC50 [3]: > 9100 nM
IC50 [4]: > 9100 nM
IC50 [5]: 590 nM
IC50 [6]: > 9100 nM
IC50 ([7]; read-out: Assay F PI3Kδ IC50): 1600 nM
SMILES: Cc1cc(-c2nc(-c3cc(S(=O)(=O)NCCN(C)C)ccc3C)cnc2N)ccn1 [Example 129.26, 3-(5-amino-6-(2-methylpyridin-4-yl)pyrazin-2-yl)-N-(2-(dimethylamino)ethyl)-4-methylbenzenesulfonamide]

IC50 [1]: 2300 nM
IC50 [2]: > 9100 nM
IC50 [3]: > 9100 nM
IC50 [4]: > 9100 nM
IC50 [5]: 260 nM
IC50 [6]: > 9100 nM
IC50 ([7]; read-out: Assay F PI3Kδ IC50): 2000 nM
SMILES: CNCCNS(=O)(=O)c1ccc(C)c(-c2cnc(N)c(-c3ccnc(C)c3)n2)c1 [Example 129.33, 3-(5-amino-6-(2-methylpyridin-4-yl)pyrazin-2-yl)-4-methyl-N-(2-(methylamino)ethyl)benzenesulfonamide]

IC50 [1]: 190 nM
IC50 [2]: > 9100 nM
IC50 [3]: > 9100 nM
IC50 [4]: > 9100 nM
IC50 [5]: 69 nM
IC50 [6]: 5000 nM
IC50 ([7]; read-out: Assay F PI3Kδ IC50): 430 nM
SMILES: Cc1cc(-c2nc(-c3cc(S(=O)(=O)NCC4(O)CCCCC4)ccc3C)cnc2N)ccn1 [Example 129.4, 3-(5-amino-6-(2-methylpyridin-4-yl)pyrazin-2-yl)-N-((1-hydroxycyclohexyl)methyl)-4-methylbenzenesulfonamide]

IC50 [1]: 290 nM
IC50 [2]: 1800 nM
IC50 [3]: > 9100 nM
IC50 [4]: 6700 nM
IC50 [5]: 120 nM
IC50 [6]: > 9100 nM
IC50 ([7]; read-out: Assay F PI3Kδ IC50): 800 nM
SMILES: Cc1cc(-c2nc(-c3cc(S(=O)(=O)NCC4(C(N)=O)CCOCC4)ccc3C)cnc2N)ccn1 [Example 129.31, 4-((3-(5-amino-6-(2-methylpyridin-4-yl)pyrazin-2-yl)-4-methylphenylsulfonamido)methyl)tetrahydro-2H-pyran-4-carboxamide]

IC50 [1]: 700 nM
IC50 [2]: > 9100 nM
IC50 [3]: > 9100 nM
IC50 [4]: > 9100 nM
IC50 [5]: 110 nM
IC50 [6]: > 9100 nM
IC50 ([7]; read-out: Assay F PI3Kδ IC50): 1200 nM
SMILES: Cc1cc(-c2nc(-c3cc(S(=O)(=O)NCCN)ccc3C)cnc2N)ccn1 [Example 129.34, 3-(5-amino-6-(2-methylpyridin-4-yl)pyrazin-2-yl)-N-(2-aminoethyl)-4-methylbenzenesulfonamide]

IC50 [1]: 740 nM
IC50 [2]: > 9100 nM
IC50 [3]: > 9100 nM
IC50 [4]: > 9100 nM
IC50 [5]: 270 nM
IC50 [6]: > 9100 nM
IC50 ([7]; read-out: Assay F PI3Kδ IC50): 2800 nM
SMILES: CC[C@@H](CO)NS(=O)(=O)c1ccc(C)c(-c2cnc(N)c(-c3ccnc(C)c3)n2)c1 [Example 129.6, (S)-3-(5-amino-6-(2-methylpyridin-4-yl)pyrazin-2-yl)-N-(1-hydroxybutan-2-yl)-4-methylbenzenesulfonamide]

IC50 [1]: 9000 nM
IC50 [2]: > 9100 nM
IC50 [3]: > 9100 nM
IC50 [4]: > 9100 nM
IC50 [5]: 760 nM
IC50 [6]: > 9100 nM
IC50 ([7]; read-out: Assay F PI3Kδ IC50): 2100 nM
SMILES: Cc1cc(-c2nc(-c3cc(S(=O)(=O)NCCN4CCCC4)ccc3C)cnc2N)ccn1 [Example 129.27, 3-(5-amino-6-(2-methylpyridin-4-yl)pyrazin-2-yl)-4-methyl-N-(2-(pyrrolidin-1-yl)ethyl)benzenesulfonamide]

— patent publication US10004732B2 (Novartis AG, priority 2014, dated 2018)
